Converted amounts (≈) assume the structure as drawn. Non-standard residues stand in square brackets, D forms with d. Residues, ends and D or L forms follow the SMILES beside them. Gly(NCH2CH2Ph) = O=C(O)CNCCc1ccccc1; hPhe = N[C@@H](CCc1ccccc1)C(=O)O; Gly(N(CH2)3NH2) = NCCCNCC(=O)O; Orn = NCCC[C@H](N)C(=O)O; Nlys = NCCCCNCC(=O)O
Experiments:
[1] = test system: HepG2 cell line ATCC HB-8065; assay: in vitro; format: cell-based; conditions: 48 h
Protocol: Side effects affecting cell viability were estimated on the HepG2 cell line ATCC HB-8065. In brief, HepG2 cells were seeded in flat-bottomed 96-well plates at a concentration of 5000 cells per well. At 80−90% confluency, the cells were incubated for 24 h in a humidified incubator (5% CO2, 37 °C). The medium was removed, and the cells were incubated for 48 h in a humidified incubator (5% CO2, 37 °C) with compounds in two-fold serial dilutions. An MTT assay was then performed as previously described. In brief, after incubation with the test compounds, the culture medium was removed and fresh medium with 0.2 mg/mL MTT was added in each well of the plate. After incubation (3 h, 37 °C, 5% CO2), the medium with MTT was removed, and 200 μL dimethyl sulfoxide were added at once to each sample. Absorbance of MTT was measured using spectrophotometer TECAN Infinite M1000 at 540 nm. The relative viability was calculated by using the formula: ODtreated cells × 100/ODcontrol cells. The IC50 values are calculated by using the program Graph Pad Prism® 5.0. For all compounds, the test range was 10–1280 μg/mL.

[2] = Relative hydrophobicity by RP-HPLC (% MeCN at peak elution); format: physicochemical; conditions: RP-HPLC gradient 0 → 60% B during 10 min; % MeCN at peak elution calculated from retention time
Protocol: The relative hydrophobicity of each peptidomimetic was measured by reverse-phase high-performance liquid chromatography (RP-HPLC). Typically, the RP-HPLC retention time (or percentage acetonitrile at peak elution) constitutes the preferred measure that allows for comparison of relative hydrophobicity, while log P values of polycationic peptides or peptidomimetics normally are considered unsuitable due to the extreme hydrophilic nature of such compounds [11, 45, 57, 58, 59, 60]. […] For both subgroups III (with cationic amino acid residues and the peptoid analogue of Phe, NPhe, i.e., 9–12) and IV (with cationic amino acid residues and the peptoid analogue of hPhe, NhPhe, i.e., 13–16) only minor differences in hydrophobicity were seen. These observations infer that, when the cationic residues are of a peptoid nature, the side-chain length of these has a […] influence on the hydrophobicity. […] Thus, introduction of additional six methylene groups results, as expected, in increased hydrophobicity.
Starting materials and solvents were purchased from commercial suppliers (Iris Biotech, Markredwitz, Germany; Fluorochem, Hadfield, United Kingdom; and Merck, Darmstadt, Germany) and used without further purification. Water used for analytical and preparative high-performance liquid chromatography (HPLC) was filtered through a 0.22-μm Millipore membrane filter. Purity and retention time of each peptidomimetic were determined by analytical UHPLC by using a Phenomenex Luna C18(2) HST column (100 mm × 3 mm; particle size: 2.5 μm; pore size: 100 Å) on a Shimadzu Prominence and Shimadzu Nexera system using an aqueous acetonitrile (MeCN) gradient with 0.1% trifluoroacetic acid (TFA) added (eluent A: 5:95 MeCN–H2O + 0.1% TFA, eluent B: 95:5 MeCN–H2O + 0.1% TFA); a flow rate of 0.5 mL/min was used. For elution of peptidomimetics, a linear gradient of 0% to 60% B during 10 min was used with UV detection at λ = 220 nm. […] For each peptidomimetic, the percentage of MeCN at peak elution was calculated from the retention time by using the following formula:(1) %MeCN = 0.95 (0.6Rt/10 min.) + 0.05 (1−0.6Rt/10 min.).

in vitro = format: cell-based; conditions: human, Hemolytic Activity (percentage hemolysis)
Protocol: The lysis of human red blood cells was measured as previously described, with modifications. In brief, freshly drawn human red blood cells (hRBCs) were washed three times with PBS buffer and centrifuged two times for 5 min at 2500 rpm. A two-fold serial dilution of peptidomimetics in PBS buffer was added to each well in a sterile polypropylene V-bottom 96-well plate to the total volume of 75 μL. A 0.5% v/v hRBC suspension (75 μL in PBS buffer) was added to each well to reach a final volume of 150 μL in each well. The plate was incubated (37 °C) for 60 min, and then the cells were subsequently pelleted by centrifugation at 1000 rpm for 5 min. The supernatants (50 μL) were transferred to clear, flat-bottomed plastic 96-well plates. The concentration of hemoglobin was detected by measuring the OD at 405 nm. The OD of cells incubated with 0.1% SDS defined 100% hemolysis, while the OD of cells incubated with PBS buffer defined 0% hemolysis. The concentrations tested were 200, 400, and 800 μg/mL (only average values for the highest concentration are stated in Table 2).

P. aeruginosa PAO1 = format: cell-based; conditions: PAO1, 20 h
Protocol: (§1) MIC values were evaluated by using the modified Hancock lab protocol in non-binding polystyrene microtitre plates, with bacterial suspensions of ∼2 × 10^5 CFU/mL in Mueller-Hinton broth (Difco, Sparks MD, USA), with Mg^2+ and Ca^2+ concentrations of 4 mg/L each. The compounds were dissolved in H2O and diluted in 0.01% acetic acid, 0.2% BSA (final concentration). Aliquots of 11 µL of 10 × test compounds were then transferred to the appropriate wells with bacterial suspensions. For preparation and transfer of the solutions of the compounds, low-binding sterile tubes and tips (Axygen, Union City CA, USA) were used. After 20 h incubation of covered plates at 35 °C (±2 °C) with circular shaking at 220 rpm, the MICs were read. The antibacterial activity of peptidomimetics was tested against E. coli ATCC 25922, K. pneumoniae ATCC 13883, P. aeruginosa ATCC 27853, P. aeruginosa PAO1, A. baumannii ATCC 19606, S. aureus ATCC 29213, and E. faecalis ATCC 29212.

E. faecalis ATCC 29212 = format: cell-based; conditions: ATCC 29212, 20 h
Protocol: as §1

S. aureus ATCC 29213 = format: cell-based; conditions: for MIC: ATCC 29213, 20 h
Protocol: as §1

A. baumannii ATCC 19606 = format: cell-based; conditions: ATCC 19606, 20 h
Protocol: as §1

K. pneumoniae ATCC 13883 = format: cell-based; conditions: ATCC 13883, 20 h
Protocol: as §1

P. aeruginosa ATCC 27853 = format: cell-based; conditions: ATCC 27853, 20 h
Protocol: as §1

E. coli ATCC 25922 = format: cell-based; conditions: ATCC 25922, 20 h
Protocol: as §1

| Compound | IC50 for inhibiting growth of HepG2 cells [1] | Hydrophobicity (% MeCN at elution) [2] | hemolysis at 60 min, 800 µg/mL (in vitro) | MIC (P. aeruginosa PAO1) | MIC (E. faecalis ATCC 29212) | MIC (S. aureus ATCC 29213) | MIC (A. baumannii ATCC 19606) | MIC (K. pneumoniae ATCC 13883) | MIC (P. aeruginosa ATCC 27853) | MIC (E. coli ATCC 25922) | Activity against S. aureus (in words) (S. aureus ATCC 29213; S. aureus) |
| --- | --- | --- | --- | --- | --- | --- | --- | --- | --- | --- | --- |
| NCCC[C@H](NC(=O)CN(CCc1ccccc1)C(=O)[C@H](CCCN)NC(=O)CN(CCc1ccccc1)C(=O)[C@H](CCCN)NC(=O)CN(CCc1ccccc1)C(=O)[C@H](CCCN)NC(=O)CN(CCc1ccccc1)C(=O)[C@H](CCCN)NC(=O)CN(CCc1ccccc1)C(=O)[C@@H](N)CCCN)C(=O)N(CCc1ccccc1)CC(N)=O [Peptidomimetic 14] (H-[Orn][Gly(NCH2CH2Ph)][Orn][Gly(NCH2CH2Ph)][Orn][Gly(NCH2CH2Ph)][Orn][Gly(NCH2CH2Ph)][Orn][Gly(NCH2CH2Ph)][Orn][Gly(NCH2CH2Ph)]-NH2) | 684 µg/mL | 40.5% | 11% | 8 to 16 µg/mL | >64 µg/mL | >64 µg/mL | >64 µg/mL | 32 µg/mL (≈ 19.2 µM) | 8 µg/mL (≈ 4.79 µM) | 4 to 8 µg/mL |  |
| NCCCCNCC(=O)N[C@@H](CCc1ccccc1)C(=O)N(CCCCN)CC(=O)N[C@@H](CCc1ccccc1)C(=O)N(CCCCN)CC(=O)N[C@@H](CCc1ccccc1)C(=O)N(CCCCN)CC(=O)N[C@@H](CCc1ccccc1)C(=O)N(CCCCN)CC(=O)N[C@@H](CCc1ccccc1)C(=O)N(CCCCN)CC(=O)N[C@@H](CCc1ccccc1)C(N)=O [Peptidomimetic 7] (H-[Nlys][hPhe][Nlys][hPhe][Nlys][hPhe][Nlys][hPhe][Nlys][hPhe][Nlys][hPhe]-NH2) | 720 µg/mL | 40.6% | 6% | 32 to 64 µg/mL | >64 µg/mL | >64 µg/mL | >64 µg/mL | >64 µg/mL | 32 µg/mL (≈ 18.3 µM) | 2 to 4 µg/mL |  |
| NCCCNCC(=O)N[C@@H](CCc1ccccc1)C(=O)N(CCCN)CC(=O)N[C@@H](CCc1ccccc1)C(=O)N(CCCN)CC(=O)N[C@@H](CCc1ccccc1)C(=O)N(CCCN)CC(=O)N[C@@H](CCc1ccccc1)C(=O)N(CCCN)CC(=O)N[C@@H](CCc1ccccc1)C(=O)N(CCCN)CC(=O)N[C@@H](CCc1ccccc1)C(N)=O [Peptidomimetic 6] (H-[Gly(N(CH2)3NH2)][hPhe][Gly(N(CH2)3NH2)][hPhe][Gly(N(CH2)3NH2)][hPhe][Gly(N(CH2)3NH2)][hPhe][Gly(N(CH2)3NH2)][hPhe][Gly(N(CH2)3NH2)][hPhe]-NH2) | 456 µg/mL | 41.2% | 8% | 16 to 32 µg/mL | >64 µg/mL | 16 µg/mL (≈ 9.59 µM) | >64 µg/mL | >64 µg/mL | 8 µg/mL (≈ 4.79 µM) | 4 µg/mL (≈ 2.4 µM) | moderate activity |
| NCCCC[C@H](NC(=O)CN(CCc1ccccc1)C(=O)[C@H](CCCCN)NC(=O)CN(CCc1ccccc1)C(=O)[C@H](CCCCN)NC(=O)CN(CCc1ccccc1)C(=O)[C@H](CCCCN)NC(=O)CN(CCc1ccccc1)C(=O)[C@H](CCCCN)NC(=O)CN(CCc1ccccc1)C(=O)[C@@H](N)CCCCN)C(=O)N(CCc1ccccc1)CC(N)=O [Peptidomimetic 15] (H-K[Gly(NCH2CH2Ph)]K[Gly(NCH2CH2Ph)]K[Gly(NCH2CH2Ph)]K[Gly(NCH2CH2Ph)]K[Gly(NCH2CH2Ph)]K[Gly(NCH2CH2Ph)]-NH2) | 595 µg/mL | 40.5% | 8% | 8 to 16 µg/mL | >64 µg/mL | >64 µg/mL | 64 µg/mL (≈ 36.5 µM) | >64 µg/mL | 16 µg/mL (≈ 9.13 µM) | 4 µg/mL (≈ 2.28 µM) |  |

— paper PMC6943742, “Peptide/Peptoid Hybrid Oligomers: The Influence of Hydrophobicity and Relative Side-Chain Length on Antibacterial Activity and Cell Selectivity” (Molecules, 2019)
